Measured values published in patent US20240327364A1, “THERAPEUTIC TARGETING OF GPR68 TO INDUCE FERROPTOSIS” (University Of Maryland, Baltimore, priority 2023, published 2024).

Experiments:
TXK = target: T1, TXK (Homo sapiens, UniProt P42681); experiment: KinomeScan; assay type: binding; conditions: read-out: % Control
T1 construct: purchased DiscoveRx

APJ = target: T2, APJ (Homo sapiens, UniProt P35414); experiment: GPCR Profiler; assay type: cell-based
T2 construct: host or cells: Chem-1 cells with promiscuous Gα15

H2 = target: T3, H2 (Homo sapiens, UniProt P25021); experiment: GPCR Profiler; assay type: cell-based
T3 construct: host or cells: Chem-1 cells with promiscuous Gα15

MLK1 = target: T4, MLK1 (Homo sapiens, UniProt P80192); experiment: KinomeScan; assay type: binding; conditions: read-out: % Control
T4 construct: purchased DiscoveRx

AT1 = target: T5, AT1 (Homo sapiens, UniProt P30556); experiment: GPCR Profiler; assay type: cell-based
T5 construct: host or cells: Chem-1 cells with promiscuous Gα15

MAP4K5 = target: T6, MAP4K5 (Homo sapiens, UniProt Q9Y4K4); experiment: KinomeScan; assay type: binding; conditions: read-out: % Control
T6 construct: purchased DiscoveRx (Fremont, CA)

TGFBR2 = target: T7, TGFBR2 (Homo sapiens, UniProt P37173); experiment: KinomeScan; assay type: binding; conditions: read-out: % Control
T7 construct: purchased DiscoveRx (Fremont, CA)

CDK4-cyclinD1 = target: T8, CDK4-cyclinD1 (Homo sapiens, UniProt P11802); experiment: KinomeScan; assay type: binding; conditions: read-out: % Control
T8 construct: purchased DiscoveRx (KinomeScan service)

PKAC-beta = target: T9, PKAC-beta (Homo sapiens, UniProt P22694); experiment: KinomeScan; assay type: binding; conditions: read-out: % Control
T9 construct: purchased DiscoveRx (Fremont, CA)

MRCKA = target: T10, MRCKA (Homo sapiens, UniProt Q5VT25); experiment: KinomeScan; assay type: binding; conditions: read-out: % Control
T10 construct: purchased DiscoveRx

EPHA3 = target: T11, EPHA3 (Homo sapiens, UniProt P29320); experiment: KinomeScan; assay type: binding; conditions: read-out: % Control
T11 construct: purchased DiscoveRx (Fremont, CA)

ACVR2B = target: T12, ACVR2B (Homo sapiens, UniProt Q13705); experiment: KinomeScan; assay type: binding; conditions: read-out: % Control
T12 construct: purchased DiscoveRx

CHEK2 = CHEK2 (Homo sapiens, UniProt O96017); experiment: KinomeScan; assay type: binding; conditions: read-out: % Control
FGFR3(G697C) = target: T13, FGFR3(G697C) (Homo sapiens, UniProt P22607, G697C); experiment: KinomeScan; assay type: binding; conditions: read-out: % Control
T13 construct: purchased DiscoveRx (Fremont, CA)

CCR8 = target: T14, CCR8 (Homo sapiens, UniProt P51685); experiment: GPCR Profiler; assay type: cell-based
T14 construct: host or cells: Chem-1 cells with Gα15

DMPK2 = target: T15, DMPK2 (Homo sapiens, UniProt Q6DT37); experiment: KinomeScan; assay type: binding; conditions: read-out: % Control
T15 construct: purchased DiscoveRx (Fremont, CA), KinomeScan service

NEK3 = target: T16, NEK3 (Homo sapiens, UniProt P51956); experiment: KinomeScan; assay type: binding; conditions: read-out: % Control
T16 construct: purchased DiscoveRx

OSR1 = target: T17, OSR1 (Homo sapiens, UniProt O95747); experiment: KinomeScan; assay type: binding; conditions: read-out: % Control
T17 construct: purchased DiscoveRx

NEK5 = target: T18, NEK5 (Homo sapiens, UniProt Q6P3R8); experiment: KinomeScan; assay type: binding; conditions: read-out: % Control
T18 construct: purchased DiscoveRx

ASK1 = target: T19, ASK1 (Homo sapiens, UniProt Q99683); experiment: KinomeScan; assay type: binding; conditions: read-out: % Control
T19 construct: purchased DiscoveRx (Fremont, CA)

p38-alpha = target: T20, p38-alpha (Homo sapiens, UniProt Q16539); experiment: KinomeScan; assay type: binding; conditions: read-out: % Control
T20 construct: purchased DiscoveRx

WEE2 = target: T21, WEE2 (Homo sapiens, UniProt P0C1S8); experiment: KinomeScan; assay type: binding; conditions: read-out: % Control
T21 construct: purchased DiscoveRx

NK3 = target: T22, NK3 (Homo sapiens, UniProt P29371); experiment: GPCR Profiler; assay type: cell-based
T22 construct: host or cells: Chem-1 cells expressing Gα15

RWGT2 = experiment: Cell Titer-Glo viability, Lung cancer, squamous cell; assay type: cell-based
Method: OGM2 kills wide variety of cancer cell types. Cell sensitivity can be classified in to Very Sensitive (LC50<2 μM), Sensitive (LC50=2 to 10 μM), Mildly Sensitive (LC50>10 μM), and Refractory (no killing at 10 μM). The listed established cell were incubated with OGM2 at 2 μM or 10 μM for 72 hours under standard cell culture conditions, and relative cell number was assessed using Cell Titer-Glo Luminescent Cell Viability Assay (Promega™) following the manufacturer's instructions. Luminescence was determined using a Cytation 5 reader and Gen5 software package (BioTek™).
Cancer cells, which are very sensitive to killing by OGM2 (LCs <2 μM), with reported mRNA expression of GPR68 and the related proton sensing receptor GPR4. LC50's (concentrations causing 50% lethality) were determined using CellTiter-Glo (Promega™, G7570). Cells were plated in 12-well plates (CELLTREAT Scientific Products, 229112) in 1 ml of DMEM with high glucose, GlutaMAX, HEPES, or RPMI 1640 with Penicillin-Streptomycin (ThermoFisher™, 10564029, 11875119 and 15140122) and 10% FBS. Cells were incubated overnight at 37° C. in 5% CO2. Then 1 mL of fresh media was added with DMSO, OGM, or positive control (Erastin; APExBIO Technology, LLC, B1524) and cells incubated for 3 days. On the third day, all media was removed, cells were rinsed with 1×PBS, PBS was removed, and 200 μL of 1× Passive Lysis Buffer (Promega™, E1941) was added to each well. […]. Subsequently, 20 μL of lysate was added to 100 μL CellTiter-Glo™ reagent on a LUMITRAC 200 plate (Greiner™ bio-one, 82050-726). Plates were briefly spun down and read on a GloMax-Multi Detection System (Promega™).
The cells listed in the tables above were incubated with OGM2 at 2 μM or 10 μM for 72 hours under standard cell culture conditions, and relative cell number was assessed using Cell Titer-Glo Luminescent Cell Viability Assay (Promega™) following the manufacturer's instructions. Luminescence was determined using a Cytation 5 reader and Gen5 software package (BioTek™). RNA expression of GPR68 and GPR4 in the corresponding cancer cell lines are listed, according to the publicly available The Human Protein Atlas version 22.0 and Ensembl version 103.38 (see proteinatlas.org). The consensus normalized expression value (“nTPM”=normalize transcript per million) was calculated as the maximum nTPM value for each gene in the two data sources.

T2 sequence (P35414 whole entry, species assumed): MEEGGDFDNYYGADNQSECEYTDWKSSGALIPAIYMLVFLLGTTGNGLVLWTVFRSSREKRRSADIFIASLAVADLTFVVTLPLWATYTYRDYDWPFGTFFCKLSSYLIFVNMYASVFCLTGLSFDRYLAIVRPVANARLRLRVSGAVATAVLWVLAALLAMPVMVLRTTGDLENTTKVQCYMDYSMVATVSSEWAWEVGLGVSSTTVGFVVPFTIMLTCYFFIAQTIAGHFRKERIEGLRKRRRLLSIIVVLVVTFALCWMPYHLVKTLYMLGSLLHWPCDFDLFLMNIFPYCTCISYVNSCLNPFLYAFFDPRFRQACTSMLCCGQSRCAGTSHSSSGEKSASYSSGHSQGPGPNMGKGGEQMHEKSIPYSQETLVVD
T22 sequence (P29371 whole entry): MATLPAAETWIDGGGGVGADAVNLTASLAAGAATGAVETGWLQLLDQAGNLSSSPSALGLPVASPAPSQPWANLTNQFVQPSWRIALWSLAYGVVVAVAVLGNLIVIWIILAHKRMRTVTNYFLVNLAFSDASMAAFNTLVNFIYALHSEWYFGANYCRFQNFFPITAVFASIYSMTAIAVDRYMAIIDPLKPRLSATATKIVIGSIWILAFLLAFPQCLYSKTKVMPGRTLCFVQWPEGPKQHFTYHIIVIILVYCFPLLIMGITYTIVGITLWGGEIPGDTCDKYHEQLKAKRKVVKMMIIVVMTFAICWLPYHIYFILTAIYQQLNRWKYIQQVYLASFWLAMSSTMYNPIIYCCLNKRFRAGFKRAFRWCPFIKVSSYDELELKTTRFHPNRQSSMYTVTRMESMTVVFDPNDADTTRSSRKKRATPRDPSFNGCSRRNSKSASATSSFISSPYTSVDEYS
T5 sequence (P30556 whole entry): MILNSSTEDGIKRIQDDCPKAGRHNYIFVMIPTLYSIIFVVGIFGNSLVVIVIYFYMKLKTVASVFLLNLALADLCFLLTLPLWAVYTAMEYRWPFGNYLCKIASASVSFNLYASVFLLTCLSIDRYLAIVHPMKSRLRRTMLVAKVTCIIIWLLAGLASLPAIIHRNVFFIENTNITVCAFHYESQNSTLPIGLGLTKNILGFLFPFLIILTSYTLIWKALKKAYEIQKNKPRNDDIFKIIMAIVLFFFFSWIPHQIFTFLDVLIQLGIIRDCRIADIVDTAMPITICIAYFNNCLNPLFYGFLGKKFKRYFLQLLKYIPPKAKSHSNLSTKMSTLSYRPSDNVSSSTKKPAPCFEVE
T14 sequence (P51685 whole entry, species assumed): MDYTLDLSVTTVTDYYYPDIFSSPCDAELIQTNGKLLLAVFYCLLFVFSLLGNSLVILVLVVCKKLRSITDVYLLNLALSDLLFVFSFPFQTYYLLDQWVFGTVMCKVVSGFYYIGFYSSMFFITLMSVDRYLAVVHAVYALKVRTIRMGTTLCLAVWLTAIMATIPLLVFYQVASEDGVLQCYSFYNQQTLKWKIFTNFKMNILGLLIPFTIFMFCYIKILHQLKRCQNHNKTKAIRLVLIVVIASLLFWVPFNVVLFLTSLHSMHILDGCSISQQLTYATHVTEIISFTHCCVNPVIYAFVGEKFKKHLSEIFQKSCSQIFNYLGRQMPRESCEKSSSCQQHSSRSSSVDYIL
T3 sequence (P25021 whole entry): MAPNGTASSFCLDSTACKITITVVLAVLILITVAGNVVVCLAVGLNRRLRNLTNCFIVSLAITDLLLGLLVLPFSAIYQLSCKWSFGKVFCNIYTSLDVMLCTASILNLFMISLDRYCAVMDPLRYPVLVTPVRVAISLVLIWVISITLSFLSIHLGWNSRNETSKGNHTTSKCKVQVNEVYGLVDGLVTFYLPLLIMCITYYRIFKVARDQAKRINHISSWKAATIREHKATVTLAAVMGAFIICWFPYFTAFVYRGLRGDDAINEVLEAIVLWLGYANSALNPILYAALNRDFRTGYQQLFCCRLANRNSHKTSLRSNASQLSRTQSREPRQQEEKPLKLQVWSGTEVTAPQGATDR
T7 sequence (P37173 23-567): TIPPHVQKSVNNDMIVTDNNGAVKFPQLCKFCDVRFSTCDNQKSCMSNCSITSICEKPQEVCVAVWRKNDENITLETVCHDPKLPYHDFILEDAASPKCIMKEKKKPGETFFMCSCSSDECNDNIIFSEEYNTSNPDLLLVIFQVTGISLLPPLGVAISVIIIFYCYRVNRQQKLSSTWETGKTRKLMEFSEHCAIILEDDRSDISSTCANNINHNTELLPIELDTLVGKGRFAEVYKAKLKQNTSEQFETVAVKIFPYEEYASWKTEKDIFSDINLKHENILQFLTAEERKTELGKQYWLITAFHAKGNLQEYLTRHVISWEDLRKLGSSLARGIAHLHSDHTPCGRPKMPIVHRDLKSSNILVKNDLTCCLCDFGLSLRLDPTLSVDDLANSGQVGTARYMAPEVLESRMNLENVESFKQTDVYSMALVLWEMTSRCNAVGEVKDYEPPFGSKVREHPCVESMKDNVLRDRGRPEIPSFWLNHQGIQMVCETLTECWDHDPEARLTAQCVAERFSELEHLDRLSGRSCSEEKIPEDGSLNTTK
T17 sequence (O95747 whole entry): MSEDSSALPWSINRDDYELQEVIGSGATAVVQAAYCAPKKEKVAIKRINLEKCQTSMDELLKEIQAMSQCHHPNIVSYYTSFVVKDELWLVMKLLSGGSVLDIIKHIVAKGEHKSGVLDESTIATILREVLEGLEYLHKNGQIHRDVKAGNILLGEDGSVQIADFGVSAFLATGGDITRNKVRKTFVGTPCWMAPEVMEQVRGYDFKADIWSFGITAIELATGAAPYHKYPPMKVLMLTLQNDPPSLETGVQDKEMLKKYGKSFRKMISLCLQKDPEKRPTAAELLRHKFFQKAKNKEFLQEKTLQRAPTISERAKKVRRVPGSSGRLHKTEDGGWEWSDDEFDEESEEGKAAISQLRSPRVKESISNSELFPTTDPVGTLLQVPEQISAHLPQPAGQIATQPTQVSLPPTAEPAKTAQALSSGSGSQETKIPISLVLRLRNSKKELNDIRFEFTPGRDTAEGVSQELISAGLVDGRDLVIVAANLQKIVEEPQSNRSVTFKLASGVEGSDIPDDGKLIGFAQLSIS
T4 sequence (P80192 whole entry): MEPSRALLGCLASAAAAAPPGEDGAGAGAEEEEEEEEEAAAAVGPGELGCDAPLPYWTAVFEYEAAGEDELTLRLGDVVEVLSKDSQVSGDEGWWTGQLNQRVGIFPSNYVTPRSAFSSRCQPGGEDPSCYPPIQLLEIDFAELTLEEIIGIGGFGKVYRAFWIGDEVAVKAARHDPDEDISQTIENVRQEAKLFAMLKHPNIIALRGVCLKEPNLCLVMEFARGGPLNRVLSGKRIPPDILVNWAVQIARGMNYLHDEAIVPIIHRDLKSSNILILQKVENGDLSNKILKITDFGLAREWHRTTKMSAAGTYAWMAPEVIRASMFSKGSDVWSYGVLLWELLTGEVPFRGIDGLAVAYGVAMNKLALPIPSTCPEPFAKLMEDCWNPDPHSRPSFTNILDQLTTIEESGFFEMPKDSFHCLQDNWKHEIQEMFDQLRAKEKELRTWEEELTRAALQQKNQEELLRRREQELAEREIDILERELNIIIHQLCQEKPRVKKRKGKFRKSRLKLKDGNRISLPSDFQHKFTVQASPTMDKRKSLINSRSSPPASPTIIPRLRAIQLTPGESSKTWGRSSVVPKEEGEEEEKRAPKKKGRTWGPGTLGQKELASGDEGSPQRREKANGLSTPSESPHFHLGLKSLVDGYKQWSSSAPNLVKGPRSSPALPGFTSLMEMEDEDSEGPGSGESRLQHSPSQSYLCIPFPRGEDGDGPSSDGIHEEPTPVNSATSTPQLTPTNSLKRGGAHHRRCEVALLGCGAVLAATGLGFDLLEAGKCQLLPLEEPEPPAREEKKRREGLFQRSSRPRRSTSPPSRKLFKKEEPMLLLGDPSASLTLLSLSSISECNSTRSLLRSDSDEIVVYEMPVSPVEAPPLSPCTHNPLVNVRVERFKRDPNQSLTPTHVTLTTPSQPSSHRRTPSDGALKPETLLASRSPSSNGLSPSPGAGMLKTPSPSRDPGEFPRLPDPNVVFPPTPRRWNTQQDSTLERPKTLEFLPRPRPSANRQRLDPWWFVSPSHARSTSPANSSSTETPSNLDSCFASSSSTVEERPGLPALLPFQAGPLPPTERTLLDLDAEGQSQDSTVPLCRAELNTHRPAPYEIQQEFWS
T18 sequence (Q6P3R8 whole entry): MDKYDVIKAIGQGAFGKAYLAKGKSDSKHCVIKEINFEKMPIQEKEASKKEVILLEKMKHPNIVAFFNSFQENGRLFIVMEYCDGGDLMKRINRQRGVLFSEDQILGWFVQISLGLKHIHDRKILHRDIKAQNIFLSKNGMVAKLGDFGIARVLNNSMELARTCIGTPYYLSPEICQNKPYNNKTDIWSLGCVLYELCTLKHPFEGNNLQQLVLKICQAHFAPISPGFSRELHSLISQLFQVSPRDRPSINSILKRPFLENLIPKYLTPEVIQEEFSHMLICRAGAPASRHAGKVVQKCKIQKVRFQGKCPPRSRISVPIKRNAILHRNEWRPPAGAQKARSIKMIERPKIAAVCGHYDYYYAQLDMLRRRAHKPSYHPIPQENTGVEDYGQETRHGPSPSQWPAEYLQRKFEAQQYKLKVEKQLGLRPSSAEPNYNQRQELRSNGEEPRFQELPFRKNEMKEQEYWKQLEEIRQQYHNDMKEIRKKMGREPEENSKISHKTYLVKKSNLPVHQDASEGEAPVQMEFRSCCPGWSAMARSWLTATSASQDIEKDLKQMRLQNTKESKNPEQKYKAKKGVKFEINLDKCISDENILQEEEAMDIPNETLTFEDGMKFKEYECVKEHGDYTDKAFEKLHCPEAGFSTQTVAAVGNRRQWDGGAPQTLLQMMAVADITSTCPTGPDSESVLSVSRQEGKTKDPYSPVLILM

CCc1ccc2c(c1)C1(NN=C(c3cccc4ccccc34)S1)C(=O)N2 (centres unmarked) [OGM1, 5-ethyl-5′-naphthalen-1-ylspiro[1H-indole-3,2′-3H-1,3,4-thiadiazole]-2-one]
remaining binding at 10 µM (TXK): 99% | Antagonism (APJ; 10 uM): 7.7 | Agonism (APJ; 12.5 uM): 0.9 | Antagonism (H2; 10 uM): 1.3 | Agonism (H2; 12.5 uM): 0.1 | remaining binding at 10 µM (MLK1): 100% | Antagonism (AT1; 10 uM): −0.7 | Agonism (AT1; 12.5 uM): −0.4 | remaining binding at 10 µM (MAP4K5): 100% | remaining binding at 10 µM (TGFBR2): 100% | remaining binding at 10 µM (CDK4-cyclinD1): 69% | remaining binding at 10 µM (PKAC-beta): 96% | remaining binding at 10 µM (MRCKA): 78% | remaining binding at 10 µM (EPHA3): 78% | remaining binding at 10 µM (ACVR2B): 100% | remaining binding at 10 µM (CHEK2): 82% | remaining binding at 10 µM (FGFR3(G697C)): 99% | Antagonism (CCR8; 10 uM): −2.5 | Agonism (CCR8; 12.5 uM): 2 | remaining binding at 10 µM (DMPK2): 93% | remaining binding at 10 µM (NEK3): 71% | remaining binding at 10 µM (OSR1): 92% | remaining binding at 10 µM (NEK5): 95% | remaining binding at 10 µM (ASK1): 100% | remaining binding at 10 µM (p38-alpha): 54% | remaining binding at 10 µM (WEE2): 100% | Antagonism (NK3; 10 uM): −3 | Agonism (NK3; 12.5 uM): 0.5

CCc1ccc2c(c1)C1(NN=C(c3ccccc3)S1)C(=O)N2 (centres unmarked) [OGM2]
Class (RWGT2): Very Sensitive (Very Sensitive (LC50<2 μM)) | % Survival 2 μM OGM (RWGT2; 72 hours): 39.9% | % Survival 10 μM OGM (RWGT2; 72 hours): 37.1% | CC50 (RWGT2; Homo sapiens, 72 hours, read-out: LC50 (the source's name)): < 2000 nM
